Experimental data taken from patent publication US20230065640A1, “COMBINATION THERAPIES AND BIOMARKERS FOR TREATING B-CELL LYMPHOMAS” (priority 2020, published 2023).

Columns and labels:
[1] = tested on: DLBCL with a MYCC rearrangement and BCL2 expression (MYCC/BCL2 associated lymphoma); assay: CDX mouse model of DLBCL with a MYCC rearrangement and BCL2 expression; assay type: in vivo, BALB/C-nu mice; settings: FIG. 8; alone and in combination with BCL2 inhibitor (ABT199)
Procedure: (§1) Tumor Xenograft models (CDX models). BALB/C-nu mice (6-8 weeks, SPF Biotechnology Co., Ltd) were inoculated by s.c. injection of tumor cell (SU-DHL-10, SU-DHL-4 or OCI-LY-7) suspension containing Matrigel (Corning)/PBS at a ratio of 1:1. 1×10^7 cells were inoculated. When tumors reached 150-200 mm^3, treatment was initiated. Tumor growth was monitored twice a week. Tumor volume was calculated by applying the following equation: tumor volume=½(length×width^2).

[2] = tested on: DLBCL with a MYCC rearrangement; assay: CDX mouse model of DLBCL with a MYCC rearrangement; assay type: in vivo, BALB/C-nu mice
Procedure: as §1

[3] = tested on: SU-DHL-4 (double hit (MYCC/BCL2), CD20 positive); assay: SU-DHL-4 CDX model; assay type: in vivo, BALB/C-nu mice; settings: FIG. 10; b/c-nu; PC-002 5 mg/kg i.p., alone and in combination with CHOP or RCHOP
Procedure: CHOP: cyclophosphamide, 40 mg/kg, QW*3, D1, i.v., doxorubicin, 3.3 mg/kg, QW*3, D1, i.v., vincristine, 0.5 mg/kg, QW*3, D1, i.v., prednisone, 0.2 mg/kg, QD*5*3W,D1-5, p.o. RCHOP: rituximab, 25 mg/kg, QW*3, i.p., cyclophosphamide, 40 mg/kg, QW*3, D1, i.v., doxorubicin, 3.3 mg/kg, QW*3, D1, i.v., vincristine, 0.5 mg/kg, QW*3, D1, i.v., prednisone, 0.2 mg/kg, QD*5*3W,D1-5, p.o. PC-002: 5 mg/kg, QD*5*3w, D1-5, i.p.

[4] = tested on: prostate, pancreatic, and lung cancer; settings: cited from earlier work
[5] = tested on: SU-DHL-10, OCI-LY-7 and SU-DHL-2 cells; assay: Cell proliferation XTT assay in DLBCL cells with or without MYCC rearrangement; assay type: cell-based, Human; settings: DLBCL with a MYCC rearrangement versus without, 72 h incubation, FIG. 4
Procedure: (§2) Cell Culture. Human diffuse large B-cell lymphoma cells, SU-DHL-10, SU-DHL-4, OCI-LY-7 and SU-DHL-2 cells (purchased from Cell Bank, Shanghai Institutes for Biological Sciences, Chinese Academy of Sciences) were cultured in RPMI 1640 (Hyclone™, SH30809.01B) supplemented with 10% fetal bovine serum (GEMINI, 900-108). Cultures were incubated at 37° C., in 5% CO2.
Cell Treatment and proliferation assay. SU-DHL-10, OCI-LY-7 and SU-DHL-2 cell were seeded in 96-well plates (Corning-Costar, 3599) at 40000 cells/well in 200 μl culture medium treated with YM155 (50, 25, 12.5, 2.5, 1, 0.5 nM; Apex BIO, A4221) or DMSO (0.1%; Amresco, 67-68-5). After 72 h incubation, cell proliferation was measured by XTT assay (Cell Proliferation Kit II XTT, sigma, 11465015001) according to manufacturer's protocols. Briefly, after YM155 treatment, added to each well 50 μl of the XTT labeling mixture, then incubated the micro-plate for 4 h in a humidified atmosphere. The absorbance of wavelength was determined at 490 nm (OD490) and 650 nm (OD650) respectively by SpectraMax 190. The IC50 was calculated by the value of OD490. OD650.

[6] = tested on: c-MYC; assay: Western blot of c-MYC in DLBCL cells; assay type: cell-based, Human; settings: DLBCL cells with a MYCC rearrangement; treated 24 hours; FIG. 5B
Procedure: as §2
Western blot. SU-DHL-10, OCI-LY-7 and SU-DHL-2 cells were treated with/without YM155 for 24 hours. Cell lysates were prepared in lysis buffer (Thermo Fisher). Protein concentrations were determined using a Bio-Rad protein assay (Bio-Rad). 20 μg protein was loaded in 4%-12% SDS-PAGE (Invitrogen), and transferred to nitrocellulose. Membranes were blocked in 5% BSA (Sigma) for 1 hour, incubated with the primary antibody overnight at 4° C., washed and incubated with the appropriate horseradish-conjugated secondary antibody (1:5000, Cell Signaling Technology) for 1 hour at room temperature. An enhanced chemiluminescent kit (Beyotime Biotechnology) was used to visualize the signal. The following antibodies were used: c-MYC (Abcam) and GAPDH (Beyotime Biotechnology).

[7] = tested on: survivin; settings: Minematsu et al. 2008; cited from earlier work
[8] = tested on: DLBCL cells with a MYCC rearrangement; assay: Apoptosis assay (Annexin V/PI staining); assay type: cell-based, Human; settings: 24 hours post-treatment, FIG. 5A
Procedure: as §2
Apoptosis Assay. Apoptosis was detected by Annexin V/PI staining kit (Thermo Fisher) according to the manufacturer's instructions. Briefly, cells were plated at a density of 5×10^5 cells/mL in RPMI 1640 media with 2% FBS with desired concentrations of YM155. At 24 hours post-treatment the cells were harvested and tested for apoptosis by Annexin V and PI staining. Cell analysis was performed using a FACSAria (BD).

[9] = FIG. 6, alone and in combination with PARP inhibitor (olaparib)

## CC1(C)CCC(CN2CCN(c3ccc(C(=O)NS(=O)(=O)c4ccc(NCC5CCOCC5)c([N+](=O)[O-])c4)c(Oc4cnc5[nH]ccc5c4)c3)CC2)=C(c2ccc(Cl)cc2)C1 [ABT199]
[1]
  effect on tumor growth: no significant effect on tumor growth

## O=C(c1cc(Cc2n[nH]c(=O)c3ccccc23)ccc1F)N1CCN(C(=O)C2CC2)CC1 [olaparib]
[2]; [9]
  effect on tumor growth: no significant effect on tumor growth

## 1-(2-Methoxyethyl)-2-methyl-4,9-dioxo-3-(pyrazin-2-ylmethyl)-4,9-dihydro-1H-naphtho[2,3-d] imidazolium bromide [YM155]
[1]
  effect on tumor growth: complete tumor regression
[3]
  effect on tumor volume: profound effect on reducing tumor volume, essentially eliminating tumor growth
[4]; Minematsu et al. 2008
  antitumor activity: potent antitumor activity
[4]; prostate, pancreatic, and lung cancer, Nakahara et al. 2007, Na et al. 2012
  anti-tumor effects in various in vivo cancer models: exerts anti-tumor effects
[5]
  sensitivity of DLBCL to YM155 (cell proliferation): more sensitive
[6]
  MYCC expression: lowers the MYCC expression
[2]; [9]
  effect on tumor growth: tumor regression
[2]; FIG. 7, alone and in combination with CHOP
  effect on tumor growth: tumor regression
[2]; FIG. 9, b/c-nu, PC-002 5 mg/kg i.p., alone and in combination with CHOP
  effect on tumor volume: significant effect on reducing tumor volume
[7]
  survivin expression: down-regulation of survivin
[8]
  apoptosis of DLBCL cells: induces apoptosis
